# Source: ChEMBL document CHEMBL3885861, “Open TG-GATES”
# Species: Rattus norvegicus
# Test: Open TG-GATES - Regimen: Single
# Assay type: toxicity, organism-based, Sprague-Dawley
# Design: regimen Single, gender Male, age 6 weeks
# Settings: in vivo, po, 0 mg/kg, route gavage, dose level Control; for APTT / Bas / Eos / Fbg / Hb / Ht / Lym / MCH / MCHC / MCV / Mono / Neu / PT / Plat / RBC / Ret / WBC: tissue Blood; for KIDNEY_L / KIDNEY_R / KIDNEY_TOTAL: tissue Kidney; for LIVER: tissue Liver; for A/G / ALP / ALT / AST / BUN / CRE / Ca / Cl / DBIL / GLC / IP / K / LDH / Na / PL / RALB / TBIL / TC / TG / TP / gamma-GTP: tissue Plasma
structure (smiles),measurement,setting,value
Nc1nc(N)c2nc(-c3ccccc3)c(N)nc2n1,TERMINAL_BW,3 h,212 g
same,APTT,3 h,16.9 s
same,Bas,3 h,0%
same,Eos,3 h,1%
same,Fbg,3 h,287.4 mg/dL
same,Hb,3 h,13.9 g/dL
same,Ht,3 h,42%
same,Lym,3 h,79.2%
same,MCH,3 h,21.4 pg
same,MCHC,3 h,33%
same,MCV,3 h,64.6 fL
same,Mono,3 h,3.2%
same,Neu,3 h,16%
same,PT,3 h,14.2 s
same,Plat,3 h,114.1 x10_4/uL
same,RBC,3 h,651 x10_4/ul
same,Ret,3 h,7.4%
same,WBC,3 h,92.6 x10_2/uL
same,KIDNEY_L,3 h,1 g
same,KIDNEY_R,3 h,1 g
same,KIDNEY_TOTAL,3 h,1.9 g
same,LIVER,3 h,9.3 g
same,A/G,3 h,1
same,ALP,3 h,1479.4 IU/L
same,ALT,3 h,44.2 IU/L
same,AST,3 h,76.6 IU/L
same,BUN,3 h,9.4 mg/dL
same,CRE,3 h,0.2 mg/dL
same,Ca,3 h,11 mg/dL
same,Cl,3 h,105.2 meq/L
same,DBIL,3 h,0.008 mg/dL
same,GLC,3 h,173.4 mg/dL
same,IP,3 h,9.2 mg/dL
same,K,3 h,3.9 meq/L
same,LDH,3 h,58.4 IU/L
same,Na,3 h,143.2 meq/L
same,PL,3 h,143.4 mg/dL
same,RALB,3 h,2.6 g/dL
same,TBIL,3 h,0.06 mg/dL
same,TC,3 h,79.6 mg/dL
same,TG,3 h,50.8 mg/dL
same,TP,3 h,5.3 g/dL
same,gamma-GTP,3 h,1 IU/L
same,TERMINAL_BW,6 h,211.8 g
same,APTT,6 h,16.8 s
same,Bas,6 h,0%
same,Eos,6 h,0.4%
same,Fbg,6 h,302.8 mg/dL
same,Hb,6 h,13.9 g/dL
same,Ht,6 h,42.3%
same,Lym,6 h,77.2%
same,MCH,6 h,21.3 pg
same,MCHC,6 h,32.9%
same,MCV,6 h,64.8 fL
same,Mono,6 h,2.6%
same,Neu,6 h,19%
same,PT,6 h,14 s
same,Plat,6 h,123.2 x10_4/uL
same,RBC,6 h,653.2 x10_4/ul
same,Ret,6 h,7.4%
same,WBC,6 h,93.6 x10_2/uL
same,KIDNEY_L,6 h,1 g
same,KIDNEY_R,6 h,1 g
same,KIDNEY_TOTAL,6 h,1.9 g
same,LIVER,6 h,9.6 g
same,A/G,6 h,0.9
same,ALP,6 h,1424.2 IU/L
same,ALT,6 h,34.6 IU/L
same,AST,6 h,69.2 IU/L
same,BUN,6 h,9.6 mg/dL
same,CRE,6 h,0.2 mg/dL
same,Ca,6 h,10.8 mg/dL
same,Cl,6 h,104.6 meq/L
same,DBIL,6 h,0.012 mg/dL
same,GLC,6 h,179.2 mg/dL
same,IP,6 h,9.7 mg/dL
same,K,6 h,4.2 meq/L
same,LDH,6 h,57.2 IU/L
same,Na,6 h,142.8 meq/L
same,PL,6 h,146.8 mg/dL
same,RALB,6 h,2.6 g/dL
same,TBIL,6 h,0.066 mg/dL
same,TC,6 h,77.8 mg/dL
same,TG,6 h,84 mg/dL
same,TP,6 h,5.3 g/dL
same,gamma-GTP,6 h,1.2 IU/L
same,TERMINAL_BW,9 h,210.8 g
same,APTT,9 h,16.3 s
same,Bas,9 h,0.2%
same,Eos,9 h,1%
same,Fbg,9 h,304.2 mg/dL
same,Hb,9 h,13.6 g/dL
same,Ht,9 h,41.1%
same,Lym,9 h,73%
same,MCH,9 h,20.5 pg
same,MCHC,9 h,33%
same,MCV,9 h,62.2 fL
same,Mono,9 h,2%
same,Neu,9 h,23.2%
same,PT,9 h,14 s
same,Plat,9 h,119.1 x10_4/uL
same,RBC,9 h,661.2 x10_4/ul
same,Ret,9 h,7.1%
same,WBC,9 h,83.6 x10_2/uL
same,KIDNEY_L,9 h,1 g
same,KIDNEY_R,9 h,1 g
same,KIDNEY_TOTAL,9 h,1.9 g
same,LIVER,9 h,8.5 g
same,A/G,9 h,1
same,ALP,9 h,1497.4 IU/L
same,ALT,9 h,36.6 IU/L
same,AST,9 h,68 IU/L
same,BUN,9 h,10 mg/dL
same,CRE,9 h,0.2 mg/dL
same,Ca,9 h,10.6 mg/dL
same,Cl,9 h,106 meq/L
same,DBIL,9 h,0.008 mg/dL
same,GLC,9 h,173.8 mg/dL
same,IP,9 h,9.4 mg/dL
same,K,9 h,3.9 meq/L
same,LDH,9 h,53.2 IU/L
same,Na,9 h,143.6 meq/L
same,PL,9 h,132.6 mg/dL
same,RALB,9 h,2.5 g/dL
same,TBIL,9 h,0.058 mg/dL
same,TC,9 h,74 mg/dL
same,TG,9 h,41.4 mg/dL
same,TP,9 h,5.2 g/dL
same,gamma-GTP,9 h,1.4 IU/L
same,TERMINAL_BW,24 h,228.1 g
same,APTT,24 h,17.1 s
same,Bas,24 h,0%
same,Eos,24 h,1%
same,Fbg,24 h,291 mg/dL
same,Hb,24 h,14 g/dL
same,Ht,24 h,41.9%
same,Lym,24 h,76%
same,MCH,24 h,21.5 pg
same,MCHC,24 h,33.4%
same,MCV,24 h,64.3 fL
same,Mono,24 h,2.2%
same,Neu,24 h,19.8%
same,PT,24 h,13.7 s
same,Plat,24 h,120.8 x10_4/uL
same,RBC,24 h,652 x10_4/ul
same,Ret,24 h,6.9%
same,WBC,24 h,78.2 x10_2/uL
same,KIDNEY_L,24 h,1 g
same,KIDNEY_R,24 h,1 g
same,KIDNEY_TOTAL,24 h,2 g
same,LIVER,24 h,10.9 g
same,A/G,24 h,0.9
same,ALP,24 h,1674.6 IU/L
same,ALT,24 h,47.4 IU/L
same,AST,24 h,72.2 IU/L
same,BUN,24 h,15 mg/dL
same,CRE,24 h,0.2 mg/dL
same,Ca,24 h,11.2 mg/dL
same,Cl,24 h,104.2 meq/L
same,DBIL,24 h,0.01 mg/dL
same,GLC,24 h,188.6 mg/dL
same,IP,24 h,8.2 mg/dL
same,K,24 h,4.2 meq/L
same,LDH,24 h,72.4 IU/L
same,Na,24 h,142.6 meq/L
same,PL,24 h,158.6 mg/dL
same,RALB,24 h,2.7 g/dL
same,TBIL,24 h,0.044 mg/dL
same,TC,24 h,80.2 mg/dL
same,TG,24 h,109.8 mg/dL
same,TP,24 h,5.5 g/dL
same,gamma-GTP,24 h,1 IU/L
